Source: patent publication US20230165835A1, “METHODS OF TREATING ACUTE LUNG INJURY USING EBSELEN” (SOUND PHARMACEUTICALS INC., priority 2020, published 2023)
Entries after “also recorded” stand apart in the source; their conditions may differ.

Experiments:
Vero E6 cells = assay: Cytotoxicity / cell viability in Vero E6 cells; format: cell-based
18 common microbes = assay: MIC assays against 18 common microbes (interference); format: cell-based; conditions: to support testing in CF patients
Source text: (§1) We have studied the efficacy of ebselen in a number of indications including the treatment of Meniere's Disease, and in the treatment of ototoxicity in cystic fibrosis (CF) patients. Ebselen has an anti-inflammatory mechanism of action that is distinct from that of a classic corticosteroid immunosuppressive agent which can be beneficial in the treatment of respiratory viral infections. […] In addition, our Phase 2b study in cystic fibrosis (CF) patients with Pseudomonas is continuing without any safety issues. […] Our results and analysis in these other clinical studies supports the use of ebselen in the subject methods of treating or preventing conditions associated with respiratory viral infections described herein.
(§2) The anti-inflammatory mechanism of action of ebselen is unique and distinct over that of a classic corticosteroid immunosuppressive agent. […] In addition, our Phase 2b study in CF patients with Pseudomonas is continuing without any safety issues.

[1] = Cystic fibrosis trial: clinical chemistry, nephrotoxicity, tolerability; format: in vivo, human; conditions: for Serum Creatinine Mean (SD): baseline 0.77 (0.24); for Blood Urea Nitrogen Mean (SD): baseline 12.81 (4.73); for Bilirubin (Total) / Creatinine / Magnesium / Phosphorus / Albumin / Potassium / Uric Acid / Total Protein / Calcium / BUN / AST/SGOT / ALT/SGPT / GGT / Bicarbonate / Triglyceride / Alkaline Phosphatase / Glucose / Chloride / Total Cholesterol / Sodium / LDH: ITT Population; for Bilirubin (Total): Screening/Baseline 0.46; for Creatinine: Screening/Baseline 0.77; for Magnesium: Screening/Baseline 2.11; for Phosphorus: Screening/Baseline 3.62; for Albumin: Screening/Baseline 3.80; for Potassium: Screening/Baseline 4.33; for Uric Acid: Screening/Baseline 5.63; for Total Protein: Screening/Baseline 7.17; for Calcium: Screening/Baseline 8.84; for BUN: Screening/Baseline 12.81; for AST/SGOT: Screening/Baseline 16.86; for ALT/SGPT: Screening/Baseline 17.05; for GGT: Screening/Baseline 22; for Bicarbonate: Screening/Baseline 26.05; for Triglyceride: Screening/Baseline 78.33; for Alkaline Phosphatase: Screening/Baseline 97.71; for Glucose: Screening/Baseline 101.24; for Chloride: Screening/Baseline 101.95; for Total Cholesterol: Screening/Baseline 126.43; for Sodium: Screening/Baseline 135.71; for LDH: Screening/Baseline 161.48
Experimental: Thirty of 80 participants were enrolled starting in January 2019. They were Cystic fibrosis patients ages 18-70 that had acute pulmonary exacerbation or acute respiratory infections that required treatment with IV tobramycin 10 mg/kg/d for 10-21 days. They were randomized into four groups (1:1:1:1) (0, 200, 400, or 600 BID) and treated for 21 days. There were four follow-up visits for safety (adverse events, spirometry, labs), and two follow-up visits for efficacy (audiometric and vestibular). The primary endpoint was a reduction in cochleotoxic change, and the secondary endpoints was a reduction in tinnitus or vertigo severity.

[2] = Study 6.6: ebselen in severe COVID-19; format: in vivo, human; conditions: 400 or 800 mg BID for 14 days
SARS-CoV-2 = assay: Hamster model of SARS-CoV-2 disease transmission and progression, viral load (PFU); format: in vivo, Golden Syrian Hamsters
Experimental: 24 hours prior to nasal inoculation with SARS-CoV-2, Golden Syrian Hamsters were dosed with ebselen, saline and remdesivir at 15 mg/kg. Samples were taken from nares (PFU/swab) on days 1, 2 and 3, and from the nasal turbinates and cranial & caudal lung tissue (PFU/100 mg) on day 7.

[3] = Study 6.4: ebselen in moderate COVID-19; format: in vivo, human; conditions: 400 or 800 mg BID for 7 days
nCoV2 = assay: Study 6.2: ebselen in nCoV2 positive subjects with no to mild COVID-19, viral load; conditions: 400 to 600 mg BID for 7-10 days, no to mild disease
Experimental: Eligible participants are diagnosed as nCoV2 positive and enrolled for treatment within 1-5 days of appearance of symptoms. The patient is not treated with another anti-viral therapeutic agent prior to beginning of treatment. […] Randomization is stratified by age (<60 years or ≥60 years).
Ebselen is dosed as 400 to 600 mg BID for a period of 7-10 days. […] Participants receive study intervention for up to 10 days and are followed for 28 days after first dose.
Respiratory samples are taken before treatment begins and daily during treatment to assess nCoV2 viral load daily.
The primary efficacy endpoint is the time to significant reduction in pre-treatment viral load (see Zou et al.; Pan et al.). […] Other efficacy assessments are also performed and compared to baseline levels.
Follow-up assessments can be performed at 2, 4, and 8 weeks after the start of treatment. […] Extended dosing involves sub-chronic dosing of 4-12 weeks (e.g., 4, 8 or 12 weeks) with assessment of viral load until virus eliminated.

[4] = Meniere's Disease clinical study: auditory function; format: in vivo, human; conditions: exceeds reported improvements with corticosteroid treatment
Source text: as §1, §2

[5] = Visit 3, end of tobramycin treatment
[6] = Visit 4, two weeks after end of tobramycin treatment
[7] = Visit 5, four weeks after end of tobramycin treatment

With `O=c1c2ccccc2[se]n1-c1ccccc1` [ebselen, 2-phenyl-1,2-benzisoselenazol-3(2H)-one] the “cell viability at the EC50” value (Vero E6 cells) was 100%, the “effect on cell viability” value (Vero E6 cells; ebselen: at ranges slightly higher than EC50) was “cell viability was decreased” and the CC50 (Vero E6 cells; listed as ebselen (DMSO)) was > 1000 µM. For the same molecule, the CC50 (Vero E6 cells; listed as ebselen (EtOH)) was > 100 µM, the “interference in MIC assays” value (18 common microbes) was “lack of interference” and the “Serum Creatinine Mean (SD)” value ([1]; Visit 2, on tobramycin and study treatment, normal 0.49-1.44) was 0.80 (0.22) mg/dl. The “Blood Urea Nitrogen Mean (SD)” value ([1]; Visit 2, on tobramycin and study treatment, normal 5-22) was 14.68 (4.80) mg/dl, the “Bilirubin (Total)” value ([1]; Visit 2) was 0.41 and the Creatinine ([1]; Visit 2) was 0.80. For the same molecule, the Magnesium ([1]; Visit 2) was 2.21, the Phosphorus ([1]; Visit 2) was 3.61 and the Albumin ([1]; Visit 2) was 3.87. The Potassium ([1]; Visit 2) was 4.22, the “Uric Acid” value ([1]; Visit 2) was 4.89 and the “Total Protein” value ([1]; Visit 2) was 7.17. The Calcium ([1]; Visit 2) was 8.86, the BUN ([1]; Visit 2) was 14.68 and the AST/SGOT ([1]; Visit 2) was 26.45. The ALT/SGPT ([1]; Visit 2) was 31.41, the GGT ([1]; Visit 2) was 25 and the Bicarbonate ([1]; Visit 2) was 26.73. For the same molecule, the Triglyceride ([1]; Visit 2) was 114.82, the “Alkaline Phosphatase” value ([1]; Visit 2) was 93.41 and the Glucose ([1]; Visit 2) was 120.95. The Chloride ([1]; Visit 2) was 100.68, the “Total Cholesterol” value ([1]; Visit 2) was 139.68 and the Sodium ([1]; Visit 2) was 136.36. The LDH ([1]; Visit 2) was 165.45, the “Serum Creatinine Mean (SD)” value [1, 5] was 0.78 (0.20) mg/dl and the “Blood Urea Nitrogen Mean (SD)” value [1, 5] was 15.11 (5.56) mg/dl. The “Bilirubin (Total)” value ([1]; Visit 3) was 0.45, the Creatinine ([1]; Visit 3) was 0.78 and the Magnesium ([1]; Visit 3) was 2.19. The Phosphorus ([1]; Visit 3) was 3.68, the Albumin ([1]; Visit 3) was 4.05 and the Potassium ([1]; Visit 3) was 4.25. For the same molecule, the “Uric Acid” value ([1]; Visit 3) was 5, the “Total Protein” value ([1]; Visit 3) was 7.29 and the Calcium ([1]; Visit 3) was 9.03. For the same molecule, the BUN ([1]; Visit 3) was 15.11, the AST/SGOT ([1]; Visit 3) was 27.58 and the ALT/SGPT ([1]; Visit 3) was 35.63. The GGT ([1]; Visit 3) was 28.32, the Bicarbonate ([1]; Visit 3) was 27.42 and the Triglyceride ([1]; Visit 3) was 114.84. The “Alkaline Phosphatase” value ([1]; Visit 3) was 90.16, the Glucose ([1]; Visit 3) was 102.53 and the Chloride ([1]; Visit 3) was 100.68. The “Total Cholesterol” value ([1]; Visit 3) was 151.89, the Sodium ([1]; Visit 3) was 136.05 and the LDH ([1]; Visit 3) was 166.37. For the same molecule, the “Serum Creatinine Mean (SD)” value [1, 6] was 0.78 (0.19) mg/dl, the “Blood Urea Nitrogen Mean (SD)” value [1, 6] was 14.94 (6.66) mg/dl and the “Bilirubin (Total)” value ([1]; Visit 4) was 0.49. It also gave a Creatinine ([1]; Visit 4) of 0.78, a Magnesium ([1]; Visit 4) of 2.06 and a Phosphorus ([1]; Visit 4) of 3.84. For the same molecule, the Albumin ([1]; Visit 4) was 4.08, the Potassium ([1]; Visit 4) was 4.16 and the “Uric Acid” value ([1]; Visit 4) was 5.63. The “Total Protein” value ([1]; Visit 4) was 7.49, the Calcium ([1]; Visit 4) was 9.12 and the BUN ([1]; Visit 4) was 14.94. It also gave an AST/SGOT ([1]; Visit 4) of 18.22, an ALT/SGPT ([1]; Visit 4) of 20.44 and a GGT ([1]; Visit 4) of 23.11. The Bicarbonate ([1]; Visit 4) was 25.94, the Triglyceride ([1]; Visit 4) was 96.06 and the “Alkaline Phosphatase” value ([1]; Visit 4) was 104.50. The Glucose ([1]; Visit 4) was 132.56, the Chloride ([1]; Visit 4) was 100.94 and the “Total Cholesterol” value ([1]; Visit 4) was 134.78. The Sodium ([1]; Visit 4) was 135.17, the LDH ([1]; Visit 4) was 158.83 and the “Serum Creatinine Mean (SD)” value [1, 7] was 0.81 (0.24) mg/dl. For the same molecule, the “Blood Urea Nitrogen Mean (SD)” value [1, 7] was 13.45 (6.49) mg/dl, the “Bilirubin (Total)” value ([1]; Visit 5) was 0.46 and the Creatinine ([1]; Visit 5) was 0.81. It also gave a Magnesium ([1]; Visit 5) of 2.16, a Phosphorus ([1]; Visit 5) of 3.72 and an Albumin ([1]; Visit 5) of 3.98. The Potassium ([1]; Visit 5) was 4.25, the “Uric Acid” value ([1]; Visit 5) was 5.62 and the “Total Protein” value ([1]; Visit 5) was 7.38. The Calcium ([1]; Visit 5) was 9.11, the BUN ([1]; Visit 5) was 13.45 and the AST/SGOT ([1]; Visit 5) was 26.60. The ALT/SGPT ([1]; Visit 5) was 22.45, the GGT ([1]; Visit 5) was 20.65 and the Bicarbonate ([1]; Visit 5) was 26.15. For the same molecule, the Triglyceride ([1]; Visit 5) was 89.95, the “Alkaline Phosphatase” value ([1]; Visit 5) was 101.70 and the Glucose ([1]; Visit 5) was 119.05. The Chloride ([1]; Visit 5) was 101.80, the “Total Cholesterol” value ([1]; Visit 5) was 137.60 and the Sodium ([1]; Visit 5) was 136.45. For the same molecule, the LDH ([1]; Visit 5) was 213.58, the nephrotoxicity ([1]; after IV tobramycin and SPI-1005 or placebo treatment) was “no significant nephrotoxicity; also recorded: lack of nephrotoxicity” and the tolerability ([1]; human, in vivo, iv) was “well tolerated”. For the same molecule, the “respiratory status / time to clinical improvement (WHO ordinal scale)” value [2] was “effective to improve in respiratory status, and/or reduce time to at least a 2-grade improvement from baseline on the WHO ordinal scale”, the “PFU/swab (nares) Day 1” value (SARS-CoV-2; 15 mg/kg, 24 hours prior to nasal inoculation, saline 2.7E+04) was 1.0E+04 PFU/swab and the “PFU/swab (nares) Day 3” value (SARS-CoV-2; 15 mg/kg, 24 hours prior to nasal inoculation, saline 5.5E+02) was 1.7E+02 PFU/swab. The “PFU/swab (nares) Day 2” value (SARS-CoV-2; 15 mg/kg, 24 hours prior to nasal inoculation, saline 7.5E+03) was 6.2E+03 PFU/swab, the “PFU/100 mg Cranial lung” value (SARS-CoV-2; 15 mg/kg, day 7, saline 4.9E+06) was 2.3E+06 PFU/100 mg and the “PFU/100 mg Turbinates” value (SARS-CoV-2; 15 mg/kg, day 7, saline 5.5E+07) was 3.6E+07 PFU/100 mg. For the same molecule, the “PFU/100 mg Caudal lung” value (SARS-CoV-2; 15 mg/kg, day 7, saline 6.1E+06) was 6.0E+06 PFU/100 mg, the “samples with lower counts compared to remdesivir” value (SARS-CoV-2; Table 2, six samples) was 5 of 6 and the “samples with lower counts compared to saline” value (SARS-CoV-2; Table 2, six samples) was 6 of the 6. For the same molecule, the “respiratory status and progression to severe disease” value [3] was “effective to improve in respiratory status and prevent progression to severe disease”, the viral load (nCoV2) was “effective to reduce viral load” and the “auditory function (hearing loss, word recognition and tinnitus)” value [4] was “improvement in auditory function; also recorded: improve auditory function”.
